# According to the supplement of paper PMC6580486:
# Tests used:
# PCB490-5 = system: PCB490-5 (human epithelioid sarcoma primary culture)
# Experimental: (§1)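 Roche open-access kinase inhibitor screen (223 compounds) on human epithelioid sarcoma primary cultures from three spatially distinct regions of tumor PCB490. 384-well plates, 72 h, CellTiter-Glo viability; IC50 by Hill curve fit. 100000 nM = no IC50 reached. Compound ids carry a plate-well prefix, which is stripped.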
# PCB490-4 = system: PCB490-4 (human epithelioid sarcoma primary culture)
# Experimental: as §1
# PCB490-3 = system: PCB490-3 (human epithelioid sarcoma primary culture)
# Experimental: as §1
Structure (SMILES),IC50 cell viability (PCB490-5) [µM],IC50 cell viability (PCB490-4) [µM],IC50 cell viability (PCB490-3) [µM]
COc1ccc(CCN=C2NC(=O)/C(=C/c3ccc4ncccc4c3)S2)cc1,> 100,> 100,> 100
COc1cccc(F)c1C(=O)c1cnc(NC2CCN(S(C)(=O)=O)CC2)nc1N,> 100,> 100,> 100
COc1ccc(N2Cc3cnc(Nc4ccccc4)nc3N([C@@H]3CC[C@@H](O)C3)C2=O)cc1,2.16,1.79,2.59
CN=C1NC(=O)/C(=C/c2ccc3ncccc3c2)S1,> 100,> 100,> 100
O=C1NC(=Nc2ccccc2)S/C1=C\c1ccc2ncccc2c1,> 100,> 100,> 100
COC[C@H](N=C1NC(=O)/C(=C/c2ccc3ncccc3c2)S1)c1ccccc1,> 100,> 100,> 100
Cn1cc(C2=C(c3cccc(NCC(O)CO)c3)C(=O)NC2=O)c2cc(Cl)ccc21 (stereo not given),2.34,2,> 100
Cn1c(-c2ccncc2)c(-c2ccc(F)cc2)c2ncccc21,> 100,> 100,> 100
O=C1NC(=NCc2cccs2)O/C1=C\c1ccc2ncccc2c1,> 100,> 100,> 100
Cc1c(C2=C(c3cn(C)c4ccccc34)C(=O)NC2=O)c2ccccc2n1C,> 100,> 100,> 100
COc1cc[nH]c1/C=C1\C(=O)Nc2ccc([N+](=O)[O-])c(N3CC[C@@H](O)C3)c21,4.71,7.83,4.87
O=c1c(Oc2ccc(F)cc2F)cc2cnc(NC3CCOCC3)nc2n1CCCO,> 100,> 100,> 100
Cn1cc(C2=C(c3cccc4ccccc34)C(=O)NC2=O)c2ccccc21,> 100,> 100,> 100
Cn1c(=O)c(Cc2ccccc2F)cc2cnc(NC3CCOCC3)nc21,> 100,> 100,> 100
Nc1c(C(=O)c2ccc(C#CCN3CCOCC3)cc2)cnn1-c1ccc(F)cc1,> 100,> 100,> 100
